Measurements: ChEMBL document CHEMBL6121063, “Identification of a Potent and Selective CDK9 Degrader as a Targeted Therapeutic Option for the Treatment of Small-Cell Lung Cancer” (J Med Chem, 2025)
Active and inactive are the calls of the source. The rule behind the calls is not given here.

Assays:
[1] = target: T1, Protein cereblon/Cyclin-dependent kinase 9 (Homo sapiens, UniProt P50750+Q96SW2); assay: PROTAC activity at CRBN/CDK9 in human NCI-H446 cells assessed as induction of CDK9 degradation at 10 nM by Western blot analysis relative to control; type: cell-based
T1 sequence (P50750 whole entry, looked up): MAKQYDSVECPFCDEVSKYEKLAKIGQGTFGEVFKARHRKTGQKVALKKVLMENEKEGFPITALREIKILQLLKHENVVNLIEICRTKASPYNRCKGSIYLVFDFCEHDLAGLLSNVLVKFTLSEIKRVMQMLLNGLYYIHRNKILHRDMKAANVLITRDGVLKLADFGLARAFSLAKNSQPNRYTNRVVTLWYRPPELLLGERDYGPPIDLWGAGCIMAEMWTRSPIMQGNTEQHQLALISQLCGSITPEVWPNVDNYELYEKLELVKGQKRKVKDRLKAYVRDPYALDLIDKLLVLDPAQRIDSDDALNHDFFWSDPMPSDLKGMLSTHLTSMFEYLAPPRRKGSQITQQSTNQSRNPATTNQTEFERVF
T1 sequence (Q96SW2 whole entry, looked up): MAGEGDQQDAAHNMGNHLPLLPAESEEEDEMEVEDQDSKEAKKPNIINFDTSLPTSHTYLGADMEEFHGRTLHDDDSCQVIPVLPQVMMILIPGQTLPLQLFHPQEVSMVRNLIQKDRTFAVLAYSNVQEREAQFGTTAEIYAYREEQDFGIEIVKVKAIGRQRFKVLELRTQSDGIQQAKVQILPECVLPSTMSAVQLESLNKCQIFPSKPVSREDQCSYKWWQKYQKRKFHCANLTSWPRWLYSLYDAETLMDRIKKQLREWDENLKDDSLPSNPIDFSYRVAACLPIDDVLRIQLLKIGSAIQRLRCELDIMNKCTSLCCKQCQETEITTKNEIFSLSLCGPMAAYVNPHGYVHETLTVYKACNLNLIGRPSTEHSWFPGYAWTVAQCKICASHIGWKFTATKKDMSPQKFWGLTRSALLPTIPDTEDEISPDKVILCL

[2] = target: T1, Protein cereblon/Cyclin-dependent kinase 9; assay: In vivo PROTAC activity at CRBN/CDK9 in female BALB/c nude mouse xenografted with human NCI-H446 cells assessed as induction of CDK9 degradation in tumor at 25 mg/kg, po measured after 6 to 12 hrs by Western blot analysis; type: functional, organism-based; conditions: time 6-12 hrs
[3] = target: T1, Protein cereblon/Cyclin-dependent kinase 9; assay: PROTAC activity at CRBN/CDK9 in human NCI-H69 cells assessed as induction of CDK9 degradation at 10 nM measured within 3 hrs by Western blot analysis; type: cell-based
[4] = target: T1, Protein cereblon/Cyclin-dependent kinase 9; assay: PROTAC activity at CRBN/CDK9 in human NCI-H69 cells assessed as induction of CDK9 degradation at 10 nM by Western blot analysis; type: cell-based; conditions: time 0.5-12 hrs
[5] = system: NCI-H69; assay: Antiproliferative activity against human NCI-H69 cells assessed as reduction in cell viability incubated for 72 hrs in presence of thalidomide by celltiter-Glo assay; type: functional, cell-based
[6] = system: NCI-H446; assay: Antiproliferative activity against human NCI-H446 cells assessed as reduction in cell viability incubated for 72 hrs in presence of thalidomide by celltiter-Glo assay; type: functional, cell-based
[7] = target: T1, Protein cereblon/Cyclin-dependent kinase 9; assay: PROTAC activity at CRBN/CDK9 in human NCI-H69 cells assessed as increase in CDK9 ubiquitination preincubated with MG132 for 2 hrs followed by compound addition and measured after 3 hrs by co-immunoprecipitation analysis; type: cell-based
[8] = target: CDK9/cyclin T1 (Homo sapiens) (UniProt O60563+P50750); assay: Inhibition of CDK9/Cyclin T1 (unknown origin) at 10 nM relative to control; type: protein-complex assay
[9] = target: CDK12/Cyclin K (Homo sapiens) (UniProt O75909+Q9NYV4); assay: Inhibition of CDK12/Cyclin K (unknown origin) at 10 nM relative to control; type: protein-complex assay
Chain of CDK12/Cyclin K (Homo sapiens) (O75909 whole entry, looked up): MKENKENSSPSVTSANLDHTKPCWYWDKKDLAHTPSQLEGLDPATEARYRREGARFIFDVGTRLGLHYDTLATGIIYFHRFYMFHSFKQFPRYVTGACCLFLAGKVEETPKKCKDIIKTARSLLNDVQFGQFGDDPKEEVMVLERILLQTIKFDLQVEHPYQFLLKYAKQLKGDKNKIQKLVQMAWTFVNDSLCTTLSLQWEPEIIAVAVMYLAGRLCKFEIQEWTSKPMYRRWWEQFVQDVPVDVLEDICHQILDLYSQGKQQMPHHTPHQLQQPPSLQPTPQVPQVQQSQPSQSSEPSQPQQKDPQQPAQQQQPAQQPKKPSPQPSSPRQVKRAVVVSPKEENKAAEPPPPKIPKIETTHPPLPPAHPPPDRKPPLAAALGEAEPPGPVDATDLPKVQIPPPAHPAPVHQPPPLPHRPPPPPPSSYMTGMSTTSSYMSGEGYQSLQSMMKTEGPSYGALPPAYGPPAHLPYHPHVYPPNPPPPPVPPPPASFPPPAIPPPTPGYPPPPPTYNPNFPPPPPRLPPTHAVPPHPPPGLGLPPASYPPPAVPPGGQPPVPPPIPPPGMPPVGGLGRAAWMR
Chain of CDK12/Cyclin K (Homo sapiens) (Q9NYV4 whole entry, looked up): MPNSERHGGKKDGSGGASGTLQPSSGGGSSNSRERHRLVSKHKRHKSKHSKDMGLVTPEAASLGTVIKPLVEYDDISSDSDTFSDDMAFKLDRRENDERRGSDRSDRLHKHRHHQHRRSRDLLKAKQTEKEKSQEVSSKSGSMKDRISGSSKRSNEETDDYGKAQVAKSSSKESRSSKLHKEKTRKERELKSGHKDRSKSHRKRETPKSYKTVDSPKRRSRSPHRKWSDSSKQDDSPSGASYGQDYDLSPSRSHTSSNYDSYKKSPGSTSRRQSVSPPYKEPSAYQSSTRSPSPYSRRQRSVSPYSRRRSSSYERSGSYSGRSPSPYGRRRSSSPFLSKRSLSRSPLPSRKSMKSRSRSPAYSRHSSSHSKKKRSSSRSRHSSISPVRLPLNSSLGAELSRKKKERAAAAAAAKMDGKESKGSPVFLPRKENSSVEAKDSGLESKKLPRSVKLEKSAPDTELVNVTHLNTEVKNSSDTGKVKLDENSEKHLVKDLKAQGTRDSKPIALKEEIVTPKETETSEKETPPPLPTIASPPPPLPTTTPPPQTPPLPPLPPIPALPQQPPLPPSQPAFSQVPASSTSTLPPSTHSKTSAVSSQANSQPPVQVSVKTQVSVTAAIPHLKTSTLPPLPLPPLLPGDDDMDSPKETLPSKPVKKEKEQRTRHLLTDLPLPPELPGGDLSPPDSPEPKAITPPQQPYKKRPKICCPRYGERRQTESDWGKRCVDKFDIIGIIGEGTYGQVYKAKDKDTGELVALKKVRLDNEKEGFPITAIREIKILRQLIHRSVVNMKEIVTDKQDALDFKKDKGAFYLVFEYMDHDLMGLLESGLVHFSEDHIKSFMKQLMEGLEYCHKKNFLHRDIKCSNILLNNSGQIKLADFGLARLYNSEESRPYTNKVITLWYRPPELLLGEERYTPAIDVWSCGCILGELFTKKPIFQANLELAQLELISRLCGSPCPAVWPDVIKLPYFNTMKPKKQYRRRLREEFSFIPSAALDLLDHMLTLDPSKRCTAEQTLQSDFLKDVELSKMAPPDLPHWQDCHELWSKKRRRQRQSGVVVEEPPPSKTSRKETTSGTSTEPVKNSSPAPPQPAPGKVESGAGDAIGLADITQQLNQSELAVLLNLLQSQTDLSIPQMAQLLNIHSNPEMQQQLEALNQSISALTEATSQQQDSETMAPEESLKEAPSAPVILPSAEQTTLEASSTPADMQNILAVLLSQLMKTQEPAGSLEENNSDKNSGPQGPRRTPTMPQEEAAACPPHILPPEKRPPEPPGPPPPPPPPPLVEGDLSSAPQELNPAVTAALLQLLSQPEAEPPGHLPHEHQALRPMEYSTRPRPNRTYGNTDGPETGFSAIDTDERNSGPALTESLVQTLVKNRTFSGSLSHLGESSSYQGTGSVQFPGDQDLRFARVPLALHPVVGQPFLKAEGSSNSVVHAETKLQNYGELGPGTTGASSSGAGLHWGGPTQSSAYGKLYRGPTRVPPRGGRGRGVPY

[10] = target: Cyclin-dependent kinase 5/CDK5 activator 1 (Homo sapiens) (UniProt Q00535+Q15078); assay: Inhibition of CDK5/p25NCK (unknown origin) at 10 nM relative to control; type: protein-complex assay
Chain of Cyclin-dependent kinase 5/CDK5 activator 1 (Homo sapiens) (Q00535 whole entry): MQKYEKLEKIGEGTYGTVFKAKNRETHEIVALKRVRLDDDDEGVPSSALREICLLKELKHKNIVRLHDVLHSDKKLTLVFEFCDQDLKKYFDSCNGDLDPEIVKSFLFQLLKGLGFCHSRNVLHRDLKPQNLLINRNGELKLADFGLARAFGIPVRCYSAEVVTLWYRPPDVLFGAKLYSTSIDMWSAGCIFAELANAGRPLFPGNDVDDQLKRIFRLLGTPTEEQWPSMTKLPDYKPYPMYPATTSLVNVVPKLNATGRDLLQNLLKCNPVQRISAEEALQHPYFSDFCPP
Chain of Cyclin-dependent kinase 5/CDK5 activator 1 (Homo sapiens) (Q15078 99-307 partner limits assumed): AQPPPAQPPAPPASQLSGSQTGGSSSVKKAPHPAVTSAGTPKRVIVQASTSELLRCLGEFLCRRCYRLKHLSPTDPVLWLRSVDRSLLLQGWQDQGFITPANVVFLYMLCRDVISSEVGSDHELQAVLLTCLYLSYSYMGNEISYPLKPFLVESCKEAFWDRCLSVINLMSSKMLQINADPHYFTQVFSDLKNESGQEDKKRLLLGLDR

[11] = target: CDK4/Cyclin D3 (Homo sapiens) (UniProt P11802+P30281); assay: Inhibition of CDK4/cyclin D3 (unknown origin) at 10 nM relative to control; type: protein-complex assay
[12] = target: CDK1/Cyclin E (Homo sapiens) (UniProt P06493+P24864); assay: Inhibition of CDK1/cyclin E1 (unknown origin) at 10 nM relative to control; type: protein-complex assay
Chain of CDK1/Cyclin E (Homo sapiens) (P06493 whole entry, looked up): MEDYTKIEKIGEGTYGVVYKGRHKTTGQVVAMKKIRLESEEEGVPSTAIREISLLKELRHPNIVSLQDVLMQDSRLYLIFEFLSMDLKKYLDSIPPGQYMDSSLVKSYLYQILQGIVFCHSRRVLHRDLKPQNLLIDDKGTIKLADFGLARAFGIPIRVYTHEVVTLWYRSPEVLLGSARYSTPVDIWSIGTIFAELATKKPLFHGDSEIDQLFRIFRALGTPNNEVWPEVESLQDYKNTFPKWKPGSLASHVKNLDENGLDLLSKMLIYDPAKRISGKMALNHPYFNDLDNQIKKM
Chain of CDK1/Cyclin E (Homo sapiens) (P24864 whole entry, looked up): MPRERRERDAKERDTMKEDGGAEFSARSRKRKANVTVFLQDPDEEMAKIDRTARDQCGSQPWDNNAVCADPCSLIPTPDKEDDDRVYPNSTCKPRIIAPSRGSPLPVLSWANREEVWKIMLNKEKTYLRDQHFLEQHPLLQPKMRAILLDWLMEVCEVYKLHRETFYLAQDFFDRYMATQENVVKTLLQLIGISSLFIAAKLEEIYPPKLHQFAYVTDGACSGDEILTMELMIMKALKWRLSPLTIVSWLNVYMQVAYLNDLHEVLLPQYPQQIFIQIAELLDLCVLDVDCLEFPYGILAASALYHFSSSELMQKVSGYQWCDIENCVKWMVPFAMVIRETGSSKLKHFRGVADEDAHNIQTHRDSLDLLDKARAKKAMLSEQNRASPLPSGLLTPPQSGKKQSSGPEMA

[13] = target: Cyclin-dependent kinase 9 (Homo sapiens) (UniProt P50750); assay: Inhibition of CDK9-related signaling in human NCI-H69 cells assessed as decrease in RNA polymerase II phosphorylation at Ser2 residue at 0.5 to 10 nM incubated for 24 hrs by Western blot analysis; type: cell-based; conditions: dose 0.5-10 nM
Chain of Cyclin-dependent kinase 9 (Homo sapiens) (P50750 whole entry): as the sequence (P50750 whole entry, looked up) above

[14] = target: Cyclin-dependent kinase 9 (Homo sapiens) (UniProt P50750); assay: Inhibition of CDK9-related signaling in human NCI-H69 cells assessed as decrease in RNA polymerase II phosphorylation at Ser5 residue at 0.5 to 10 nM incubated for 24 hrs by Western blot analysis; type: cell-based; conditions: dose 0.5-10 nM
[15] = target: Cyclin-dependent kinase 9 (Homo sapiens) (UniProt P50750); assay: Inhibition of CDK9-related signaling in human NCI-H69 cells assessed as reduction in c-MYC expression level at 0.5 to 10 nM incubated for 24 hrs by Western blot analysis; type: cell-based; conditions: dose 0.5-10 nM
[16] = system: NCI-H69; assay: Inhibition of colony formation in human NCI-H69 cells at 2 to 4 nM incubated for 8 days by crystal violet staining based analysis; type: functional, cell-based; conditions: dose 2-4 nM, time 8.0 day
[17] = system: NCI-H446; assay: Inhibition of colony formation in human NCI-H446 cells at 2 to 4 nM incubated for 8 days by crystal violet staining based analysis; type: functional, cell-based; conditions: dose 2-4 nM, time 8.0 day
[18] = system: NCI-H69; assay: Induction of apoptosis in human NCI-H69 cells incubated for 36 hrs by Annexin V-FITC/PI staining based flow cytometric analysis; type: functional, cell-based; conditions: dose 1-8 nM
[19] = system: NCI-H446; assay: Induction of apoptosis in human NCI-H446 cells incubated for 36 hrs by Annexin V-FITC/PI staining based flow cytometric analysis; type: functional, cell-based; conditions: dose 1-8 nM
[20] = system: NCI-H69; assay: Induction of apoptosis in human NCI-H69 cells assessed as decrease in BCL-2 expression incubated for 36 hrs by Western blot analysis; type: functional, cell-based
[21] = system: NCI-H69; assay: Induction of apoptosis in human NCI-H69 cells assessed as increase in cleaved PARP level incubated for 36 hrs by Western blot analysis; type: functional, cell-based
[22] = system: NCI-H446; assay: Antitumor activity against human NCI-H446 cells xenografted in female NU-NU mouse model assessed as increase in cleaved caspase-3 expression in tumor at 12.5 to 25 mg/kg, po administered once daily for 15 days by immunohistochemical staining based analysis; type: functional, organism-based; conditions: dose 12.5-25 mg/kg, time 15.0 day
[23] = system: NCI-H446; assay: Antitumor activity against human NCI-H446 cells expressing luciferase-GFP xenografted in female NU-NU mouse model assessed as decrease in systemic metastasis at 12.5 to 25 mg/kg, po administered for 19 days; type: functional, organism-based; conditions: dose 12.5-25 mg/kg, time 19.0 day
[24] = system: Small cell lung cancer cell line; assay: Antitumor activity against LDI-0060-200770 patient derived Small cell lung cancer cell line xenografted in BALB/c nude mouse assessed as reduction in tumor growth at 25 mg/kg, po administered once daily for 7 days; type: functional, organism-based; conditions: Homo sapiens, time 7.0 day
[25] = system: Small cell lung cancer cell line; assay: Antitumor activity against LDI-2025-362195 patient derived Small cell lung cancer cell line xenografted in BALB/c nude mouse assessed as reduction in tumor growth at 25 mg/kg, po administered once daily for 7 days; type: functional, organism-based; conditions: Homo sapiens, time 7.0 day
[26] = target: CDK2/Cyclin A2 (Homo sapiens) (UniProt P24941+P20248); conditions: dose 10.0 nM

Activity [1]: 93.4%
Activity [2]: Active
Activity [3]: Active
Activity [4]: Time-dependent-effect
Activity [7]: Active
inhibition [8]: 95%
inhibition [9]: 38%
inhibition [10]: 52%
inhibition [11]: 55%
inhibition [12]: 24%
inhibition [13]: Active
inhibition [14]: Active
inhibition [15]: Active
inhibition [26]: 33%
SMILES: O=C1CCC(Nc2cccc(N3CCN(CC4CCN(CC(=O)N5CCC(NC(=O)c6n[nH]cc6NC(=O)c6c(Cl)cccc6Cl)CC5)CC4)CC3)c2)C(=O)N1 (stereo unspecified)
Activity [5]: inactive
Activity [6]: inactive
inhibition [16]: Active
inhibition [17]: Active
Activity [18]: Dose-dependent-effect
Activity [19]: Dose-dependent-effect
Activity [20]: Dose-dependent-effect
Activity [21]: Dose-dependent-effect
Activity [22]: Active
Activity [23]: Active
Activity [24]: Active
Activity [25]: Active
